{"source": "patent US20210137883A1", "about": "“ANTI-NEOPLASTIC COMPOUNDS AND METHODS TARGETING QSOX1” (ARIZONA BOARD OF REGENTS ON BEHALF OF ARIZONA STATE …, priority 2015, published 2021)", "key": {"[1]": {"system": "786-O", "experiment": "Detection of laminin-α4 deposition with anti-LAMA4 antibody in kidney cancer cells", "type": "cell-based", "conditions": "15 uM SBI-183; 786-O kidney cancer cells; FIG. 12", "description": "FIG. 12. 786-O Detection of laminin-α4 using anti-LAMA4 antibody in kidney cancer cells after incubation with 15uM SBI-183. […] Secondary alone indicates the goat anti-mouse antibody that was used to detect binding of anti-LAMA4."}, "[2]": {"system": "myeloma cell lines", "experiment": "MTT assay on myeloma cell lines", "type": "cell-based", "conditions": "2-fold serial dilutions, at higher doses, FIG. 15", "description": "FIG. 15. MTT assay results from exposure of myeloma cell lines to SBI-183. Assay conditions: 25,000 cells per well were plated in a 96-well flat-bottom plate. 2-fold serial dilutions of SBI-183 were added to each well. % cell viability was calculated using the following formula: cmpd+cells/vehicle+cells*100%."}, "[3]": {"system": "786-O cells", "experiment": "Boyden chamber invasion through Matrigel, 786-O kidney cancer cells", "type": "cell-based", "conditions": "dose-dependent; FIG. 11", "from_the_text": "FIG. 11. Effect of Compound SBI-0143183 on Kidney cancer invasion through Matrigel (786-0)."}, "[4]": {"system": "MIAPaCa2 pancreatic tumor cells", "experiment": "Boyden chamber invasion through Matrigel, MIAPaCa2", "type": "cell-based", "conditions": "FIG. 13"}, "[5]": {"target": "T1, recombinant QSOX1 (Homo sapiens, UniProt O00391)", "T1 construct": "made in house", "T1 sequence (O00391 30-747)": "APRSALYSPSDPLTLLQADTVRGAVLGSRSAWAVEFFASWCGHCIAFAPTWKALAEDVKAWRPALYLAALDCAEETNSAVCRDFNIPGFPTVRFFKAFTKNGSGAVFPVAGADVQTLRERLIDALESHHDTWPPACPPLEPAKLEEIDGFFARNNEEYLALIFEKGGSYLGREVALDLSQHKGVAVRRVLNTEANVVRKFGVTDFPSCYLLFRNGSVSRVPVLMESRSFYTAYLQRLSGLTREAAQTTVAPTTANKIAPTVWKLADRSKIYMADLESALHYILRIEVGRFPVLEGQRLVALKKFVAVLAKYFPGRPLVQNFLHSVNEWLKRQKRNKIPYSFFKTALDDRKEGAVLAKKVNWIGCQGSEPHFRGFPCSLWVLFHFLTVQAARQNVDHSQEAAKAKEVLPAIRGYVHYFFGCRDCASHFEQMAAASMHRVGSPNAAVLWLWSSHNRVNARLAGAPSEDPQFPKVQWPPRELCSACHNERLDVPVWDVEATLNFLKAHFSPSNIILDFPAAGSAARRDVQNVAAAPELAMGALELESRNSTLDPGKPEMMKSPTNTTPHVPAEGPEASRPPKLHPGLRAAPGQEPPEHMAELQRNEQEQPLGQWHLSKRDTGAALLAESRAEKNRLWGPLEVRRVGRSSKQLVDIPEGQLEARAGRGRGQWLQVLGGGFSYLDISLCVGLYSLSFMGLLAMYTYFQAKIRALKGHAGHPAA", "experiment": "Fluorogenic HTS assay for QSOX1 inhibitors (H2O2 detection, RNAse A substrate)", "type": "biochemical", "conditions": "library screen with recombinant QSOX1", "description": "FIG. 7. An in vitro assay to screen for QSOX1 inhibitors; Fluorogenic assay (also can be HTS). Enzymatically active recombinant QSOX1 is incubated with individual compounds in individual wells of a 384 well plate. […] Therefore, no fluorescence is observed.\nIn screening for inhibitors, recombinant QSOX1 was produced and tested in fluorogenic assays to make sure it was active. The recombinant enzyme then was sent to the Sanford Burnham Institute for use in the same/similar assay to screen libraries for chemical compounds that inhibit the enzymatic activity of QSOX1.\nA peptide was identified in plasma from pancreatic cancer patients that mapped back to the QSOX1 parent protein (FIG. 1, prior art). […] A high throughput screening assay (HTS) was employed to screen a library of chemical compounds (50,000 compounds). The assay detects H2O2 produced by QSOX1 when it is enzymatically active (FIG. 7). Inhibition of the enzymatic activity of QSOX1 (with a chemical compound) suppresses H2O2 production, decreasing fluorescent or bioluminescent signal in the assay."}, "[6]": {"system": "UOK117 renal cell carcinoma xenografts", "experiment": "UOK117 renal cell carcinoma xenografts in nude mice", "type": "in vivo", "conditions": "oral lavage 20 mg/kg/day from day 7, compared to vehicle-treated and untreated mice, FIG. 14", "description": "FIG. 14. […] Mice were inoculated with 1 million tumor cells in the hind flank. Treatment was started on day 7 by oral lavage at 20 mg/kg/day."}, "[7]": {"system": "MCF-10A breast cancer cell lines containing mutant p53", "experiment": "Boyden chamber invasion through Matrigel, MCF-10A p53 breast cell lines", "type": "cell-based", "conditions": "FIG. 13", "from_the_text": "FIG. 13. […] P530E is MCF-10A non-malignant breast cell line containing wild type (non-mutated) p53. R248W, R273C and Y220C are three different p53 mutants expressed in MCF-10A breast cells."}}, "note": "Entries after “also recorded” stand apart in the source; their conditions may differ.", "data": [{"smiles": "COc1cccc(C(=O)Nc2ccc(N3CCCC3)cc2)c1", "note": "[SBI-183, 3-methoxy-N-[4-(1-pyrrolidinyl)phenyl]benzamide]", "values": [{"measurement": "deposition of laminin-α4 into the extracellular matrix", "setting": "[1]", "value": "not deposited; also recorded: inhibits deposition"}, {"measurement": "cell viability (MTT)", "setting": "[2]", "value": "decreased viability"}, {"measurement": "invasion of 786-O cells through Matrigel", "setting": "[3]", "value": "suppressed invasion"}, {"measurement": "invasion through Matrigel of MIAPaCa2 pancreatic tumor cells", "setting": "[4]", "value": "suppresses invasion"}, {"measurement": "inhibition of the enzymatic activity of QSOX1", "setting": "[5]", "value": "inhibitor"}, {"measurement": "growth of UOK117 renal cell carcinoma xenografts", "setting": "[6]", "value": "suppresses the growth"}, {"measurement": "invasion through Matrigel of MCF-10A breast cell lines (p53 overexpress and mutant p53 R248W, R273C, Y220C)", "setting": "[7]", "value": "suppresses invasion"}]}]}
